The source of these data is publication PMC8877721 (Journal of medicinal chemistry, 2021).

Some results are limits rather than exact numbers.

For data set [1] the following is noted: PAMPA assay; cited from earlier work. (In PAMPA a lipid-coated filter parts donor from acceptor wells.)
The target in data set [2] is T1, DNA polymerase γ (catalytic domain) (Homo sapiens, UniProt P54098).
T1 sequence (P54098 1-1239): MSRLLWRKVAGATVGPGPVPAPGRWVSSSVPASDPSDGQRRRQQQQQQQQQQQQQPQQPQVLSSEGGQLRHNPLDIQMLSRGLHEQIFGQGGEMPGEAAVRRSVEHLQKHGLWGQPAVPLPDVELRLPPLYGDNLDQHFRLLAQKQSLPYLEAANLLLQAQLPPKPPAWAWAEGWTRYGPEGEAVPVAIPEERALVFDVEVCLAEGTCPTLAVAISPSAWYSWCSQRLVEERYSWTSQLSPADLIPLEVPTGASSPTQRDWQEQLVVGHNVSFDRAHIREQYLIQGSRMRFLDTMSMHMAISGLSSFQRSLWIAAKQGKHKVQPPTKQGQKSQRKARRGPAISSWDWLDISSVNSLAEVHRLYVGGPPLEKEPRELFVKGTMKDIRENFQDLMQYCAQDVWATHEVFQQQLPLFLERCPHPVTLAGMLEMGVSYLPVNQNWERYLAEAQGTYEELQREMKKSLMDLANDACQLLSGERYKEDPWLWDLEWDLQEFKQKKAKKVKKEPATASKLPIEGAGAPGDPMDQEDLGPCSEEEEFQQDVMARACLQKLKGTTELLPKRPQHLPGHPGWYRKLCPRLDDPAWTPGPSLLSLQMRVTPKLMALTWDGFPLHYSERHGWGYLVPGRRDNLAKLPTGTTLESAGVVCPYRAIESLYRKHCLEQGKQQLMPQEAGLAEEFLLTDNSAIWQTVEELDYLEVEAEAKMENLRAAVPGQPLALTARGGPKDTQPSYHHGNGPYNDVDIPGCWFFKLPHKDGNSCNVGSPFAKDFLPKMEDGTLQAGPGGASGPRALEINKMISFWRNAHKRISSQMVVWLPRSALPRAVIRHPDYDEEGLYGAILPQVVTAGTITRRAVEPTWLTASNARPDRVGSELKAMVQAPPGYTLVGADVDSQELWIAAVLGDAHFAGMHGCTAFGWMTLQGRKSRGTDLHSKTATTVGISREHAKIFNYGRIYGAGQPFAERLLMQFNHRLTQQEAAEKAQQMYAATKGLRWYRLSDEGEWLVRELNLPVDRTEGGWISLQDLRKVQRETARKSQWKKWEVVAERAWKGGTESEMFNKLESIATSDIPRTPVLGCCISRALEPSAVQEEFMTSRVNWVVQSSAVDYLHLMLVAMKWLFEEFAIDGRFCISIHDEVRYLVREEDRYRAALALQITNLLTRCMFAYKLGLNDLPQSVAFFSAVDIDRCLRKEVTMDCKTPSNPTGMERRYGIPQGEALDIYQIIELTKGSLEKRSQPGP
As to the kind of experiment: Enzymatic incorporation of ddhCTP by DNA polymerase gamma. Format: biochemical. Conditions: 100 μM nucleotide, 0, 10 or 20 min, gel electrophoresis.

For another data set, the target named is ZIKV NS5 RdRp (Zika virus, UniProt A0A024B7W1). Description: ZIKV RdRp-catalyzed nucleotide incorporation. The following applies: synthetic ddhCTP. Format: biochemical.
ZIKV NS5 RdRp, sequence (A0A024B7W1 2521-3423): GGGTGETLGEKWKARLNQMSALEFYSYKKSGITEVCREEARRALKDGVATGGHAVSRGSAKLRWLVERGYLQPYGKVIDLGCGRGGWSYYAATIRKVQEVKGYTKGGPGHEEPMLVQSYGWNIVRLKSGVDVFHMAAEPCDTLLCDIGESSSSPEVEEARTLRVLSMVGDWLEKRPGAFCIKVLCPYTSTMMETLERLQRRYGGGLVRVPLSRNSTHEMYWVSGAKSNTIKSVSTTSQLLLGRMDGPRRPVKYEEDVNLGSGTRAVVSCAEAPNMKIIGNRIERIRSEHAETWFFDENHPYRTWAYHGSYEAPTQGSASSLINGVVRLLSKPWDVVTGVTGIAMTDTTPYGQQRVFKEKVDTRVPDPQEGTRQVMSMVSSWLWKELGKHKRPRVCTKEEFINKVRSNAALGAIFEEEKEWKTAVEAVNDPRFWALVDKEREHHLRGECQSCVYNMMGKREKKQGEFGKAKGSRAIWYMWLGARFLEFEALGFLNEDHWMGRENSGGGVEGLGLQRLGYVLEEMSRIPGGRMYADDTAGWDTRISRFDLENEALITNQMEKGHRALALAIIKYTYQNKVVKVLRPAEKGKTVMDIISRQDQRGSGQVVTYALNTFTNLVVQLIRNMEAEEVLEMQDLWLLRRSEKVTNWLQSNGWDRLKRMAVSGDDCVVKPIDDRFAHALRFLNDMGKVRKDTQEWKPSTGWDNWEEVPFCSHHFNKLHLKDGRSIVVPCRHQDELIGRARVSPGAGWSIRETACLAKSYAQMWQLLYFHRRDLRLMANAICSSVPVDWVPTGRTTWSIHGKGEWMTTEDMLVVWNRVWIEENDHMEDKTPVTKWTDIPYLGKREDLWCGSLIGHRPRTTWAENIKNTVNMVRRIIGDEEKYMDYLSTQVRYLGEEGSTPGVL
The test system of another data set is WNV. Description: Antiviral plaque assay, WNV. Conditions: MOI 0.1, 3 days post-infection. Format: cell-based, West Nile virus.
In another data set the test system is Vero cells. Description: Alamar Blue cell viability assay, Vero cells. Format: cell-based. Conditions: 2 days in culture.
Data set [3] has as its system HUH7 cells. Description: Alamar Blue cell viability assay, HUH7 cells. The format is cell-based, human. Conditions: 2 days in culture.
In data set [4] the test system is HUH7 cells. Description: In cellulo metabolism of 1 and ddhC to ddhCTP in HUH7 cells. Format: cell-based, human. Conditions: 100 μM.
In data set [5] the test system is ZIKV (strain PRABC59). The following applies: 1 mM ddhC over 24 h; cited from earlier work.
In a further data set the test system is HEK293 cells. Conditions: HEK293 cells exposed to ddhC, after 48 h; cited from earlier work.
For data set [6], the system named is ZIKV (strain PRABC59). Description: Antiviral plaque assay, ZIKV. Format: cell-based, Zika virus. The following applies: for reduction in ZIKV virus levels: 0.1 mM dose, MOI 0.1, plaque titration 4 days post-infection.

Usually Papp stands for a coefficient for how fast a substance crosses the barrier. Consider `CC(C)OC(=O)[C@H](C)N[P@](=O)(OC[C@H]1O[C@@H](n2ccc(=O)[nH]c2=O)[C@](C)(F)[C@@H]1O)Oc1ccccc1` [sofosbuvir], for which, in [1], the apparent permeability coefficient (Papp) is 0.046 ×10⁻⁶ cm/s.
For the molecule `Nc1ccn([C@@H]2OC(COP(=O)(O)OP(=O)(O)OP(=O)(O)O)=C[C@H]2O)c(=O)n1` [ddhCTP, 3’-Deoxy-3’,4’-didehydrocytidine-5’-triphosphate], the “substrate for DNA polymerase γ (in words)” value in data set [2] was “not a substrate”. At ZIKV NS5 RdRp, the “mode of action in primer extension assay (in words)” value is “obligate chain terminator”.
For the molecule `Nc1ccn([C@@H]2OC(CO)=C[C@H]2O)c(=O)n1` [ddhC, 3’-deoxy-3’,4’-didehydro-cytidine], the “activity against WNV (in words)” value with WNV (HUH7 cells), in the data set on WNV (HUH7.5 cells) and in the data set with WNV (Vero cells) was “ineffective” in each case. In addition, the “cytotoxicity (in words)” value in the data set with Vero cells and in the data set on HUH7 cells [3] was “neither ddhC nor 1 were cytotoxic” throughout. In the data set on HUH7 cells [4], the “dosed compound in HUH7 lysate 24 h following dosage (cell permeable)” value is on record as “detected”. In addition, the “reduction of ZIKV levels in infected Vero cells” value in the data set with ZIKV (strain PRABC59) [5] was 50-200 x. In addition, the ddhCTP produced in the data set on HEK293 cells is on record as ~ 100 μM.
Take `CC(C)OC(=O)[C@H](C)NP(=O)(OCC1=C[C@@H](O)[C@H](n2ccc(N)nc2=O)O1)Oc1ccccc1` (stereo in doubt) [compound 1, Isopropyl ((S)-(((4R,5R)-5-(4-amino-2-oxopyrimidin-1(2H)-yl)-4-hydroxy-4,5-dihydrofuran-2-yl)methoxy)(phenoxy)phosphoryl)-L-alaninate]: the “reduction in ZIKV virus levels” value in the data set on ZIKV (strain PRABC59) [6] (HUH7 cells) and with ZIKV (strain PRABC59) [6] (HUH7.5 cells) was over 1 log10 pfu/mL throughout. Further, in the data set with ZIKV (strain PRABC59) [6] (Vero cells, MOI 0.1, 4 days post-infection, compared with HUH7 and HUH7.5), the “activity against ZIKV in Vero cells (in words)” value is on record as “weaker activity”. Besides, the “reduction of WNV levels” value in the data set on WNV (HUH7 cells) and in the data set on WNV (HUH7.5 cells) was over 4 log10 pfu/mL in each case. Besides, in the data set on WNV (Vero cells), the “activity against WNV (in words)” value is “inactive”. The “cytotoxicity (in words)” value in the data set on Vero cells and with HUH7 cells [3] was “neither ddhC nor 1 were cytotoxic” throughout. The “dosed compound in HUH7 lysate 24 h following dosage (cell permeable)” value in the data set on HUH7 cells [4] is listed as “detected”.
